In the supplement of paper PMC10477900:
Counter-ions that a name gives are not always drawn.

Columns and labels:
[1] = tested on: HCT116; details: 72 h
Experimental: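 HCT116 control and MTA1-KO (CRISPR) HCT116 cells were seeded in 384-well plates (800 cells/well), treated 16 h later with 237 metabolism-related anticancer drugs at five doses (10 uM, 2 uM, 400 nM, 80 nM, 16 nM) for 72 h, two replicates; viability by CCK8. Values are % inhibition of viability relative to untreated cells, plus fitted IC50.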

[2] = tested on: HCT116; assay: viability inhibition vs untreated; higher = more cytotoxic; details: 72 h

| Compound | IC50 ([1]; genotype: MTA1-KO) [µM] | IC50 ([1]; genotype: control) [µM] | viability inhibition ([2]; genotype: MTA1-KO, 16 nM) [%] | viability inhibition ([2]; genotype: MTA1-KO, 80 nM) [%] | viability inhibition ([2]; genotype: MTA1-KO, 400 nM) [%] | viability inhibition ([2]; genotype: MTA1-KO, 2000 nM) [%] | viability inhibition ([2]; genotype: MTA1-KO, 10000 nM) [%] | viability inhibition ([2]; genotype: control, 16 nM) [%] | viability inhibition ([2]; genotype: control, 80 nM) [%] | viability inhibition ([2]; genotype: control, 400 nM) [%] | viability inhibition ([2]; genotype: control, 2000 nM) [%] | viability inhibition ([2]; genotype: control, 10000 nM) [%] |
| --- | --- | --- | --- | --- | --- | --- | --- | --- | --- | --- | --- | --- |
| N[C@@H](CCC(=O)N[C@@H](CS)C(=O)NCC(=O)O)C(=O)O [Glutathione] | > 10 | > 10 | -21.2 | -27.6 | -21.1 | -16.6 | -21.7 | 8.47 | 0.941 | -7.27 | 8.72 | 5.08 |
| Cc1ccccc1C(C(=O)NC1CCCCC1)N(C(=O)Cn1ccnc1C)c1cccc(F)c1 (stereo not given) [AGI5198] | > 10 | > 10 | 7.58 | 7.91 | 5.76 | 8.57 | 37.4 | -3.24 | -17.7 | -10.7 | -12.3 | 2.37 |
| CCC(=O)N1CCN(c2ccc(-n3c(=O)ccc4cnc5ccc(-c6cnc7ccccc7c6)cc5c43)cc2C(F)(F)F)CC1 [Torin 1] | 0.324 | 1.8 | 2.4 | 8.65 | 52 | 70.7 | 80.9 | -14.3 | -3.02 | 4.25 | 56 | 62.3 |
| O=C(O)c1ccc(C=C2SC(=S)N(c3cccc(C(F)(F)F)c3)C2=O)cc1 [CFTRinh172] | > 10 | 5.31 | -5.28 | -12.6 | -0.878 | -4.39 | 25.2 | -6.21 | -18.3 | -11.9 | 16 | 64.3 |
| COc1cccc(-c2ccc(NC(=O)C3=C(C(=O)O)CCC3)c(F)c2)c1 [Vidofludimus] | 7.17 | 8.85 | 16.3 | 14.4 | 15.2 | 18.4 | 72.5 | 14.5 | 16.4 | 19.6 | 28.3 | 60.9 |
| O=C1NC(=O)/C(=C/c2ccc3nccc(-c4ccncc4)c3c2)S1 | 1.21 | 2.02 | -12 | -22.4 | 10.1 | 64.1 | 99.4 | 1.82 | -12 | 5.41 | 56.4 | 75.1 |
| CN(C)C1CCN(C(=O)c2ccc(NC(=O)Nc3ccc(-c4nc(N5CCOCC5)nc(N5CCOCC5)n4)cc3)cc2)CC1 [Gedatolisib] | 0.187 | 0.305 | -5.92 | 17.3 | 63.7 | 80.1 | 82.8 | 19.9 | 26.7 | 68.6 | 88.3 | 103 |
| O=C(Cc1ccccc1)Nc1nnc(CCSCCc2nnc(NC(=O)Cc3ccccc3)s2)s1 [BPTES] | > 10 | > 10 | -12.8 | -12.2 | 0.728 | 8.71 | 41.5 | -3.88 | -3.14 | -1.6 | -0.809 | -19.2 |
| CCCCCCCCCCC[C@@H](C[C@@H]1OC(=O)[C@H]1CCCCCC)OC(=O)[C@H](CC(C)C)NC=O [Orlistat] | > 10 | > 10 | -6.57 | -2.27 | -2.16 | -13.4 | 15.7 | 4.58 | -13.3 | -7.69 | -2.81 | 37 |
| Cc1cc(C2CCCCC2)n(O)c(=O)c1 [Ciclopirox ethanolamine] | 7.38 | 1.88 | -18 | -22.5 | -14.4 | -5.78 | 54.5 | -10.2 | 5.38 | 5.2 | 46.4 | 91.6 |
| OCc1ccc(-c2ccc(-c3ccc(CO)s3)o2)s1 [RITA] | 1.21 | 0.153 | 7.71 | 35 | 91.7 | 101 | 99 | -0.895 | 27.2 | 72.5 | 96.3 | 104 |
| CN1CCN(C(=O)COc2ccc(C34CC5CC(CC(C5)C3)C4)cc2)CC1 | 9.27 | > 10 | 0.53 | 0.971 | 2.4 | 3.12 | 55.4 | -2.5 | -2.81 | -1.07 | -8.95 | 7.86 |
| CC(C)CC(N)=O [Isovaleramide] | > 10 | > 10 | -15.6 | -17.2 | -11.3 | -17.2 | -13 | -6.22 | -6.16 | -2.21 | -1.96 | -10.4 |
| O=C(O)CCC(=O)c1ccc(-c2ccccc2)cc1 [Fenbufen] | > 10 | > 10 | -12.7 | -18.9 | -14.3 | 3.54 | -0.929 | 3.15 | 8.7 | 7.49 | 6.47 | 10.4 |
| O=S(=O)(NCCSSCCNS(=O)(=O)c1cc(Cl)ccc1Cl)c1cc(Cl)ccc1Cl [KC7F2] | > 10 | > 10 | 3.77 | 14.6 | 13.5 | 9.73 | 16.2 | 25.3 | 14.3 | 11.1 | 9.06 | 24.4 |
| CN(C)C(=N)N=C(N)N [Metformin hydrochloride] | > 10 | > 10 | -20.9 | -15.7 | -16.8 | -16.1 | -14.1 | -3.73 | -8.51 | 4.88 | 7.24 | 3.98 |
| NC(=O)c1ncn([C@@H]2O[C@H](CO)[C@@H](O)[C@H]2O)c1N [AICAR (Acadesine)] | > 10 | > 10 | -0.376 | 0.906 | -7.18 | -5.56 | 6.99 | -3.52 | -3.58 | -3.52 | -4.22 | 37.8 |
| OCc1ccc(-c2nn(Cc3ccccc3)c3ccccc23)o1 [Lificiguat] | 2.7 | 2.38 | -2.39 | 4.47 | 8.63 | 37.6 | 92.2 | 0.501 | 5.33 | -0.629 | 22.8 | 100 |
| CCN[C@H]1C[C@H](C)S(=O)(=O)c2sc(S(N)(=O)=O)cc21 [Dorzolamide hydrochloride] | > 10 | > 10 | -14.8 | -12.5 | -7.44 | -8.97 | -17.4 | -5.26 | -2.58 | -9.91 | -10 | -10.3 |
| CC[C@H](C)C(=O)O[C@H]1C[C@H](O)C=C2C=C[C@H](C)[C@H](CC[C@@H](O)C[C@@H](O)CC(=O)O)[C@H]21 [Pravastatin sodium] | > 10 | > 10 | 9.21 | -16.3 | -12.8 | -12.2 | -1.55 | 10.2 | -15.3 | -11.6 | -6.15 | 6.05 |
